Experimental data as given in ChEMBL document CHEMBL1201862, “PubChem BioAssay data set” (2004).
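Method: 48-hour compound exposure of cells in 96-well plates, five concentrations, linear interpolation of endpoints. Here, GI50 denotes the concentration required for 50% inhibition of growth.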 Activity calls are given as the source filed them. Cut-off read from the data, not from the text of the source: active = GI50 up to about 1.1 µM and inactive = higher.

Columns and labels:
Assay in all cases: NCI tumour cell line growth inhibition, 48 h
[1] = system: 786-0
[2] = system: CAKI-1
[3] = system: EKVX
[4] = system: HCT-116
[5] = system: HOP-18
[6] = system: HOP-92
[7] = system: KM12
[8] = system: MOLT-4
[9] = system: NCI-H226
[10] = system: OVCAR-4
[11] = system: SF-268
[12] = system: SK-MEL-28
[13] = system: SK-MEL-2
[14] = system: SK-MEL-5
[15] = system: SNB-19
[16] = system: SNB-75
[17] = system: UACC-62

O=C(CCC(=O)Nc1ccc(Cl)cc1)CC(=O)c1ccc2ccccc2c1
GI50 [1]: > 100 µM (inactive) | GI50 [2]: > 100 µM (inactive) | GI50 [3]: > 100 µM (inactive) | GI50 [4]: > 100 µM (inactive) | GI50 [5]: > 100 µM (inactive) | GI50 [6]: > 100 µM (inactive) | GI50 [7]: > 100 µM (inactive) | GI50 [8]: > 100 µM (inactive) | GI50 [9]: > 100 µM (inactive) | GI50 [10]: > 100 µM (inactive) | GI50 [11]: > 100 µM (inactive) | GI50 [12]: > 100 µM (inactive) | GI50 [13]: > 100 µM (inactive) | GI50 [14]: > 100 µM (inactive) | GI50 [15]: > 100 µM (inactive) | GI50 [16]: > 100 µM (inactive) | GI50 [17]: 32.7 µM (inactive)

CCCC(=O)C(CC)/C(CCC(=O)N(Cc1ccccc1)Cc1ccccc1)=N/NC(=O)C[N+](C)(C)C (stereo not drawn)
GI50 [1]: > 100 µM (inactive) | GI50 [2]: > 100 µM (inactive) | GI50 [3]: > 100 µM (inactive) | GI50 [4]: > 100 µM (inactive) | GI50 [5]: > 100 µM (inactive) | GI50 [6]: > 100 µM (inactive) | GI50 [7]: > 100 µM (inactive) | GI50 [8]: > 100 µM (inactive) | GI50 [9]: > 100 µM (inactive) | GI50 [10]: > 100 µM (inactive) | GI50 [11]: > 100 µM (inactive) | GI50 [12]: > 100 µM (inactive) | GI50 [13]: > 100 µM (inactive) | GI50 [14]: > 100 µM (inactive) | GI50 [15]: > 100 µM (inactive) | GI50 [16]: > 100 µM (inactive)

C/C(=N\NC(N)=S)c1ccc(C)cc1C
GI50 [1]: > 100 µM (inactive) | GI50 [2]: > 100 µM (inactive) | GI50 [3]: 8.41 µM (inactive) | GI50 [4]: > 100 µM (inactive) | GI50 [5]: > 100 µM (inactive) | GI50 [6]: > 100 µM (inactive) | GI50 [7]: 60.8 µM (inactive) | GI50 [8]: 41.8 µM (inactive) | GI50 [9]: > 100 µM (inactive) | GI50 [10]: 84.5 µM (inactive) | GI50 [13]: 37.2 µM (inactive) | GI50 [14]: 21.7 µM (inactive) | GI50 [16]: 47.5 µM (inactive) | GI50 [17]: 38.9 µM (inactive)

O=C1C/C(Br)=C\c2ccccc2-c2ccccc21
GI50 [1]: 1.4 µM (inactive) | GI50 [2]: 1.98 µM (inactive) | GI50 [3]: 9.82 µM (inactive) | GI50 [4]: 1.8 µM (inactive) | GI50 [5]: 4.48 µM (inactive) | GI50 [6]: 1.85 µM (inactive) | GI50 [7]: 3.52 µM (inactive) | GI50 [8]: 2.16 µM (inactive) | GI50 [9]: 2.66 µM (inactive) | GI50 [10]: 2.53 µM (inactive) | GI50 [11]: 2.85 µM (inactive) | GI50 [12]: 1.05 µM (active) | GI50 [13]: 2.7 µM (inactive) | GI50 [14]: 5.4 µM (inactive) | GI50 [15]: 6.89 µM (inactive) | GI50 [16]: 2.26 µM (inactive) | GI50 [17]: 2.23 µM (inactive)

C/C(=C1/CCCC2(N=NCC2c2ccccc2)C1=O)c1ccccc1 (stereo not drawn)
GI50 [1]: 46.7 µM (inactive) | GI50 [3]: 28.3 µM (inactive) | GI50 [4]: 18.7 µM (inactive) | GI50 [5]: 51.1 µM (inactive) | GI50 [6]: 24.2 µM (inactive) | GI50 [7]: 15.9 µM (inactive) | GI50 [8]: 14.4 µM (inactive) | GI50 [9]: 16 µM (inactive) | GI50 [10]: 30.7 µM (inactive) | GI50 [11]: 65.3 µM (inactive) | GI50 [12]: 26.9 µM (inactive) | GI50 [13]: 19.1 µM (inactive) | GI50 [14]: 12.7 µM (inactive) | GI50 [15]: 66.4 µM (inactive) | GI50 [16]: 30.3 µM (inactive) | GI50 [17]: 16.3 µM (inactive)

O=C1C=C(O)C(=Cc2c(O)cc(O)cc2O)C(O)=C1
GI50 [1]: > 100 µM (inactive) | GI50 [2]: > 100 µM (inactive) | GI50 [3]: > 100 µM (inactive) | GI50 [4]: > 100 µM (inactive) | GI50 [5]: > 100 µM (inactive) | GI50 [6]: > 100 µM (inactive) | GI50 [7]: > 100 µM (inactive) | GI50 [8]: > 100 µM (inactive) | GI50 [9]: > 100 µM (inactive) | GI50 [10]: > 100 µM (inactive) | GI50 [11]: > 100 µM (inactive) | GI50 [13]: > 100 µM (inactive) | GI50 [14]: > 100 µM (inactive) | GI50 [15]: > 100 µM (inactive) | GI50 [16]: > 100 µM (inactive) | GI50 [17]: > 100 µM (inactive)

Fc1cccc2c1cc1ccc3cccc4ccc2c1c34
GI50 [1]: > 100 µM (inactive) | GI50 [2]: > 100 µM (inactive) | GI50 [3]: > 100 µM (inactive) | GI50 [4]: > 100 µM (inactive) | GI50 [5]: > 100 µM (inactive) | GI50 [6]: > 100 µM (inactive) | GI50 [7]: > 100 µM (inactive) | GI50 [8]: > 100 µM (inactive) | GI50 [9]: > 100 µM (inactive) | GI50 [10]: > 100 µM (inactive) | GI50 [11]: > 100 µM (inactive) | GI50 [12]: > 100 µM (inactive) | GI50 [13]: > 100 µM (inactive) | GI50 [14]: > 100 µM (inactive) | GI50 [15]: > 100 µM (inactive) | GI50 [16]: > 100 µM (inactive) | GI50 [17]: > 100 µM (inactive)
